{"source": "patent US8236785B2", "about": "“Method of treating or preventing infertility in a female mammal and pharmaceutical kit for use in such method” (Pantarhei Bioscience B.V., priority 2007, dated 2012)", "key": {"premature LH-surge [1]": {"tested_on": "premature LH-surge", "assay": "Open-label uncontrolled clinical trial of premature LH-surge prevention in women undergoing COH/IVF", "assay_type": "in vivo", "conditions": "daily oral 40 mg", "method": "An open-label, uncontrolled, single centre clinical trial is performed to investigate the efficacy, safety and tolerability of premature LH-surge prevention in 10 women undergoing IVF treatment for infertility by Controlled Ovarian Hyperstimulation (COH), using a daily oral dosage of 40 mg estetrol (E4) from day 6 of FSH treatment up to and including the day of hCG administration to resume meiosis and induce lutëinisation. Oocytes are retrieved 30-38 hours after hCG administration, fertilised in vitro and two days later no more than two embryos are transferred to the uterus of the patient. Standard luteal support is prescribed.\nUltrasonographic monitoring of follicle growth and endometrial thickness are performed during this treatment procedure including extensive and repeated hormonal analysis and measurement of E4 levels extending into the luteal phase after embryo transfer."}, "premature LH-surge [2]": {"tested_on": "premature LH-surge", "assay": "Randomised controlled dose-finding clinical trial of premature LH-surge prevention in COH/IVF, E4 versus ganirelix", "assay_type": "in vivo, women", "method": "An open-label, randomised, controlled, dose-finding, multi-centre clinical trial is performed to investigate and compare the efficacy, safety and tolerability of premature LH-surge prevention in women undergoing COH/IVF using either E4 in an oral dosage of 1, 5, 10, 20, 40 or 80 mg per day or a daily subcutaneous injection of 0.25 mg ganirelix. Group size is 30 women, so in total 210 patients participate in the trial. E4/ganirelix treatment is started on day 6 of FSH treatment up to and including the day of hCG administration. Further procedures are similar to example 1."}, "ERβ receptor": {"target": "ERβ receptor (Homo sapiens, UniProt Q92731)", "sequence (Q92731 whole entry)": "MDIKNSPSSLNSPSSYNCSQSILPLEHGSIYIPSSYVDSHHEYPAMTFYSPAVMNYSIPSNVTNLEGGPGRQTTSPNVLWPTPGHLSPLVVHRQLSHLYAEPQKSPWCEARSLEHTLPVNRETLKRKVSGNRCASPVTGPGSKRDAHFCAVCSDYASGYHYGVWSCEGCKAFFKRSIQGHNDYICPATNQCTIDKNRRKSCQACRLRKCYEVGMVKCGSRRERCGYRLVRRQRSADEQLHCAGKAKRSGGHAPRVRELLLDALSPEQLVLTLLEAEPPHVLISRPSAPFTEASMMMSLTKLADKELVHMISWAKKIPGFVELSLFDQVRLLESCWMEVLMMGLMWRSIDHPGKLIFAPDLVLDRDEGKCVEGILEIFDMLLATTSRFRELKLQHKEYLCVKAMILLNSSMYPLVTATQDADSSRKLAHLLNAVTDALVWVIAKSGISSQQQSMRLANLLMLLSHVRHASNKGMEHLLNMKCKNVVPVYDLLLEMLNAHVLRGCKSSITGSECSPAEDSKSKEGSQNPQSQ", "assay": "Estrogen receptor affinity", "assay_type": "binding"}, "ERα receptor": {"target": "T1, ERα receptor (Homo sapiens, UniProt P03372)", "T1 sequence (P03372 1-595)": "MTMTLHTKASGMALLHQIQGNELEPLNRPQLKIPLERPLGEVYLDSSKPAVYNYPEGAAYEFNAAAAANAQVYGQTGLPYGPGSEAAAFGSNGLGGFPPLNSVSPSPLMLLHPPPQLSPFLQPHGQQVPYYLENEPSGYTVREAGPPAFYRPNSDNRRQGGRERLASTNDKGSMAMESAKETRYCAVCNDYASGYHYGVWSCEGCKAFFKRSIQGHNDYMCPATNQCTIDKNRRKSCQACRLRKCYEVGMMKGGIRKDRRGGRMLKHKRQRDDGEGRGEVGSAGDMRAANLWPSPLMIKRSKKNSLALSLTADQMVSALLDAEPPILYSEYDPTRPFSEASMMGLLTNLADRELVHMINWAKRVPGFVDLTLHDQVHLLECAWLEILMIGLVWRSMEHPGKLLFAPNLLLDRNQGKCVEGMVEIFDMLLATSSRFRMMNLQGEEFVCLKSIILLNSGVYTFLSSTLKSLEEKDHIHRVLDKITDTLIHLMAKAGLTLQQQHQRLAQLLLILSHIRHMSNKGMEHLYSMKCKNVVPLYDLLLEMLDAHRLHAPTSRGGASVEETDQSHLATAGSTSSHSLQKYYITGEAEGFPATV", "assay": "Estrogen receptor affinity", "assay_type": "binding"}}, "data": [{"smiles": "C[C@]12CC[C@@H]3c4ccc(O)cc4CC[C@H]3[C@@H]1[C@@H](O)[C@@H](O)[C@@H]2O", "note": "[estetrol, 1,3,5 (10)-estratrien-3,15α,16α,17β-tetrol]", "values": [{"measurement": "tolerability / side-effects", "setting": "premature LH-surge [1]", "result": "well tolerated without significant side-effects"}, {"measurement": "prevention of a premature LH-surge", "setting": "premature LH-surge [1]; from day 6 of FSH treatment up to and including day of hCG, 10 women", "result": "efficacious in preventing a premature LH-surge"}, {"measurement": "vital pregnancies", "setting": "premature LH-surge [1]; COH/IVF with embryo transfer", "result": "Vital pregnancies occur"}, {"measurement": "prevention of premature LH-surges compared with ganirelix", "setting": "premature LH-surge [2]; higher oral dosages vs daily subcutaneous 0.25 mg ganirelix", "result": "equally effective to parenteral ganirelix"}, {"measurement": "prevention of premature LH-surges", "setting": "premature LH-surge [2]; oral 1, 5, 10, 20, 40 or 80 mg per day", "result": "dose dependent prevention of premature LH-surges"}, {"measurement": "tolerability / side-effects", "setting": "premature LH-surge [2]; oral 1-80 mg per day", "result": "well tolerated and without significant side-effects"}, {"measurement": "vital pregnancy rates compared with ganirelix", "setting": "premature LH-surge [2]; oral E4 vs daily subcutaneous 0.25 mg ganirelix", "result": "trend to be superior to ganirelix treated patients"}, {"measurement": "affinity for the ERβ receptor", "setting": "ERβ receptor", "result": "relatively low affinity"}, {"measurement": "affinity for the ERα receptor", "setting": "ERα receptor", "result": "relatively high affinity"}]}]}
